Test results: publication PMC3265452 (PLoS Neglected Tropical Diseases, 2012)
Counter-ions that a name gives are not always drawn. Like-named read-outs stand apart in the source and are kept apart here.

Target: AaDOP2 (Aedes aegypti, UniProt H6D5H2)
Assay: AaDOP2 antagonist screen of the LOPAC1280 library (HEK-CRELuc-Aadop2 cells, luminescence)
Assay type: cell-based
[1] = 10 µM compound, 300 nM dopamine, 2 hr, hit = compound effect <20

Sequence of AaDOP2 (H6D5H2 1-476): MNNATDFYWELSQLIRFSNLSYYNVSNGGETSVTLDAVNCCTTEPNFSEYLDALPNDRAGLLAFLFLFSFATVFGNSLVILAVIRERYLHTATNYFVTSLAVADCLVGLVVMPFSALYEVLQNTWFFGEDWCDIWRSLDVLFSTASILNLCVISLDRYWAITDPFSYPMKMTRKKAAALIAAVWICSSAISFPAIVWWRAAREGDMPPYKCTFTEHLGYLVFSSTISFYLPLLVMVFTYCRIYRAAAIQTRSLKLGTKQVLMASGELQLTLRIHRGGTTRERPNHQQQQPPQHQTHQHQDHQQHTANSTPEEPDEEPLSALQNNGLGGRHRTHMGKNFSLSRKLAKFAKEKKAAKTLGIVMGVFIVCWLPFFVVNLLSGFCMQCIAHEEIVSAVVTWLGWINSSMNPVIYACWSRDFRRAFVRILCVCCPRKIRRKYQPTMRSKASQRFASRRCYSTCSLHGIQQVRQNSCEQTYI

Cl.N=C(N)NC(=N)Nc1cccc(Cl)c1 [Compound 339, 1-(m-Chlorophenyl)-biguanide hydrochloride]
Compound effect (percent receptor signaling in presence of test compound, relative lux units relative to the SCH23390 control): 83

Nc1nc(Cl)nc2c1ncn2[C@@H]1O[C@H](COP(=O)([O-])OP(=O)([O-])OP(=O)([O-])[O-])[C@@H](O)[C@H]1O.[Na+].[Na+].[Na+].[Na+] [Compound 340, 2-Chloroadenosine triphosphate tetrasodium]
Compound effect (percent receptor signaling in presence of test compound, relative lux units relative to the SCH23390 control): 102

Oc1cc2c(cc1O)CN(C(=S)NCCc1ccc(Cl)cc1)CCC2 [Compound 342, Capsazepine]
Compound effect (percent receptor signaling in presence of test compound, relative lux units relative to the SCH23390 control): 69

CN1C(=O)CCS(=O)(=O)C1c1ccc(Cl)cc1 (stereo not shown) [Compound 343, Chlormezanone]
Compound effect (percent receptor signaling in presence of test compound, relative lux units relative to the SCH23390 control): 93

Cn1c(=O)c2c(nc(C=Cc3cccc(Cl)c3)n2C)n(C)c1=O [Compound 344, 8-(3-Chlorostyryl)caffeine]
Compound effect (percent receptor signaling in presence of test compound, relative lux units relative to the SCH23390 control): 91

Nc1nc2ccc(Cl)cc2c2nc(-c3ccco3)nn12 [Compound 345, CGS-15943]
Compound effect (percent receptor signaling in presence of test compound, relative lux units relative to the SCH23390 control): 117

O=C[C@H](Cl)[C@@H](O)[C@H](O)[C@H](O)CO [Compound 346, 2-Chloro-2-deoxy-D-glucose]
Compound effect (percent receptor signaling in presence of test compound, relative lux units relative to the SCH23390 control): 114

CN1C2CCC1CC(OC(c1ccccc1)c1ccc(Cl)cc1)C2.Cl (stereo not drawn) [Compound 347, 4'-Chloro-3-alpha-(diphenylmethoxy)tropane hydrochloride]
% of the SCH23390 effect (percent inhibition of receptor response relative to the SCH23390 control): 85%
Compound effect (percent receptor signaling in presence of test compound, relative lux units relative to the SCH23390 control): 15

c1ccc(C2CC2)c(OCC2=NCCN2)c1 [Compound 348, Cirazoline hydrochloride]
Compound effect (percent receptor signaling in presence of test compound, relative lux units relative to the SCH23390 control): 74

CS(=O)(=O)O.Cn1cc(C(F)(F)F)nc1-c1ccc(OCC(O)CNCCOc2ccc(O)c(C(N)=O)c2)cc1 (stereo not shown) [Compound 349, CGP 20712A methanesulfonate]
Compound effect (percent receptor signaling in presence of test compound, relative lux units relative to the SCH23390 control) [1]: 92%

N[C@H](C(=O)O)[C@H]1C[C@@H]1C(=O)O [Compound 350, (2S,1'S,2'S)-2-(carboxycyclopropyl)glycine]
Compound effect (percent receptor signaling in presence of test compound, relative lux units relative to the SCH23390 control): 97

N#Cc1cc2nc([O-])c([O-])nc2cc1[N+](=O)[O-].[Na+].[Na+] [Compound 351, CNQX disodium]
Compound effect (percent receptor signaling in presence of test compound, relative lux units relative to the SCH23390 control) [1]: 91%

O=C(c1ccc2c(c1)OCCO2)N1CCCCC1 [Compound 352, CX 546]
Compound effect (percent receptor signaling in presence of test compound, relative lux units relative to the SCH23390 control): 97

CNC(=O)[C@H]1O[C@@H](n2cnc3c(NCc4cccc(I)c4)nc(Cl)nc32)[C@H](O)[C@@H]1O [Compound 353, Chloro-IB-MECA]
Compound effect (percent receptor signaling in presence of test compound, relative lux units relative to the SCH23390 control): 120

COc1cccc(OC)c1OCCNCC1COc2ccccc2O1.Cl (stereo not shown) [Compound 354, WB-4101 hydrochloride]
Compound effect (percent receptor signaling in presence of test compound, relative lux units relative to the SCH23390 control) [1]: 101%

O=[N+]([O-])c1cc2nc(O)c(O)nc2cc1[N+](=O)[O-] [Compound 355, DNQX]
Compound effect (percent receptor signaling in presence of test compound, relative lux units relative to the SCH23390 control): 100

C[C@@H]1O[C@@H](O[C@H]2C[C@@H](O)[C@]3(CO)[C@H]4[C@H](O)C[C@]5(C)[C@@H]([C@@H]6COC(=O)C6)CC[C@]5(O)[C@@H]4CC[C@]3(O)C2)[C@H](O)[C@H](O)[C@H]1O [Compound 356, Dihydroouabain]
Compound effect (percent receptor signaling in presence of test compound, relative lux units relative to the SCH23390 control): 56

CC(CCc1ccc(O)cc1)NCCc1ccc(O)c(O)c1 (stereo not shown) [Compound 357, Dobutamine hydrochloride]
Compound effect (percent receptor signaling in presence of test compound, relative lux units relative to the SCH23390 control): 98

CC(C)[C@H]1CN[C@H](C(=O)O)[C@H]1CC(=O)O [Compound 358, Dihydrokainic acid]
Compound effect (percent receptor signaling in presence of test compound, relative lux units relative to the SCH23390 control): 94

C[N+](C)(C)CCCCCCCCCC[N+](C)(C)C.[Br-].[Br-] [Compound 359, Decamethonium dibromide]
Compound effect (percent receptor signaling in presence of test compound, relative lux units relative to the SCH23390 control): 98

Nc1ncnc2c1ncn2[C@@H]1O[C@H](COP(=O)(O)OP(=O)(O)OP(=O)(O)OP(=O)(O)OC[C@H]2O[C@@H](n3cnc4c(N)ncnc43)[C@H](O)[C@@H]2O)[C@@H](O)[C@H]1O [Compound 360, P1,P4-Di(adenosine-5')tetraphosphate triammonium]
Compound effect (percent receptor signaling in presence of test compound, relative lux units relative to the SCH23390 control): 75

N=C(N)N1CCc2ccccc2C1 [Compound 361, Debrisoquin sulfate]
Compound effect (percent receptor signaling in presence of test compound, relative lux units relative to the SCH23390 control): 86

Cc1cn([C@H]2C=C[C@@H](CO)O2)c(=O)[nH]c1=O [Compound 362, 2',3'-didehydro-3'-deoxythymidine]
Compound effect (percent receptor signaling in presence of test compound, relative lux units relative to the SCH23390 control): 99

O=C(CCCN1CC=C(n2c(=O)[nH]c3ccccc32)CC1)c1ccc(F)cc1 [Compound 363, Droperidol]
Compound effect (percent receptor signaling in presence of test compound, relative lux units relative to the SCH23390 control): 58

COC(=O)[C@@H](N)Cc1ccc(O)c(O)c1.Cl [Compound 364, L-3,4-Dihydroxyphenylalanine methyl ester hydrochloride]
Compound effect (percent receptor signaling in presence of test compound, relative lux units relative to the SCH23390 control): 90

OC[C@H]1NC[C@@H](O)[C@@H]1O [Compound 365, 1,4-Dideoxy-1,4-imino-D-arabinitol]
Compound effect (percent receptor signaling in presence of test compound, relative lux units relative to the SCH23390 control): 103

O=[N+]([O-])c1ccc(O[C@@H]2O[C@H](CO)[C@@H](O)[C@H](O)[C@H]2F)c([N+](=O)[O-])c1 [Compound 366, 2,4-Dinitrophenyl 2-fluoro-2-deoxy-beta-D-glucopyranoside]
Compound effect (percent receptor signaling in presence of test compound, relative lux units relative to the SCH23390 control): 75

OC[C@H]1O[C@@H](n2cnc3ccccc32)[C@H](O)[C@@H]1O [Compound 367, D-ribofuranosylbenzimidazole]
Compound effect (percent receptor signaling in presence of test compound, relative lux units relative to the SCH23390 control) [1]: 24%

COc1ccc([C@@H]2Sc3ccccc3N(CCN(C)C)C(=O)[C@@H]2OC(C)=O)cc1 [Compound 369, Diltiazem hydrochloride]
Compound effect (percent receptor signaling in presence of test compound, relative lux units relative to the SCH23390 control): 107

Br.COc1ccc2c(c1)[C@]13CCCC[C@@H]1[C@H](C2)N(C)CC3.O [Compound 370, Dextromethorphan hydrobromide monohydrate]
Compound effect (percent receptor signaling in presence of test compound, relative lux units relative to the SCH23390 control): 102

O=C(OCCN1CCCCC1)c1c[nH]c2ccccc12 [Compound 371, SB 203186]
Compound effect (percent receptor signaling in presence of test compound, relative lux units relative to the SCH23390 control): 84

CN1C[C@H](C(=O)N[C@]2(C)O[C@@]3(O)[C@@H]4CCCN4C(=O)[C@H](Cc4ccccc4)N3C2=O)C[C@@H]2c3cccc4[nH]cc(c34)C[C@H]21 [Compound 372, Dihydroergotamine methanesulfonate]
Compound effect (percent receptor signaling in presence of test compound, relative lux units relative to the SCH23390 control): 46

c1ccc2c(c1)[I+]c1ccccc1-2 [Compound 373, Diphenyleneiodonium chloride]
Compound effect (percent receptor signaling in presence of test compound, relative lux units relative to the SCH23390 control): 36

CC(=O)C(C)=O [Compound 375, 2,3-Butanedione]
Compound effect (percent receptor signaling in presence of test compound, relative lux units relative to the SCH23390 control): 88

CN(C)C(=O)N=NC(=O)N(C)C [Compound 376, N,N,N',N'-Tetramethylazodicarboxamide]
Compound effect (percent receptor signaling in presence of test compound, relative lux units relative to the SCH23390 control) [1]: 93%

N[C@H](C(=O)O)c1cc(O)cc(O)c1 [Compound 377, (S)-3,5-Dihydroxyphenylglycine]
Compound effect (percent receptor signaling in presence of test compound, relative lux units relative to the SCH23390 control): 93

Cc1cc(N)c2ccccc2[n+]1CCCCCCCCCC[n+]1c(C)cc(N)c2ccccc21 [Compound 378, Dequalinium dichloride]
Compound effect (percent receptor signaling in presence of test compound, relative lux units relative to the SCH23390 control): 73

CN(C)CCOC(C)(c1ccccc1)c1ccccn1 (stereo not shown) [Compound 379, Doxylamine succinate]
Compound effect (percent receptor signaling in presence of test compound, relative lux units relative to the SCH23390 control): 85

CNCCCN1c2ccccc2CCc2ccccc21 [Compound 380, Desipramine hydrochloride]
Compound effect (percent receptor signaling in presence of test compound, relative lux units relative to the SCH23390 control): 29

O=C1NC(=O)C(c2ccccc2)(c2ccccc2)N1 [Compound 382, 5,5-Diphenylhydantoin]
Compound effect (percent receptor signaling in presence of test compound, relative lux units relative to the SCH23390 control): 96

CN(C)C(N)=NCCC[C@H](N)C(=O)O.Cl [Compound 383, N^G,N^G-Dimethylarginine hydrochloride]
Compound effect (percent receptor signaling in presence of test compound, relative lux units relative to the SCH23390 control) [1]: 106%

O=P(O)(O)C(Cl)(Cl)P(=O)(O)O [Compound 384, Clodronic acid]
Compound effect (percent receptor signaling in presence of test compound, relative lux units relative to the SCH23390 control): 83

O=C1NC(=O)C(c2ccccc2)(c2ccccc2)N1 [Compound 385, Phenytoin sodium]
Compound effect (percent receptor signaling in presence of test compound, relative lux units relative to the SCH23390 control): 77

CC(C)NC[C@H](O)COc1cccc2[nH]ccc12 [Compound 387, S(-)-Pindolol]
Compound effect (percent receptor signaling in presence of test compound, relative lux units relative to the SCH23390 control): 91

COc1cc(C(=O)OCCCN2CCCN(CCCOC(=O)c3cc(OC)c(OC)c(OC)c3)CC2)cc(OC)c1OC [Compound 389, Dilazep hydrochloride]
Compound effect (percent receptor signaling in presence of test compound, relative lux units relative to the SCH23390 control): 62

C[C@]12CC[C@H](OS(=O)(=O)[O-])CC1=CC[C@@H]1[C@@H]2CC[C@]2(C)C(=O)CC[C@@H]12.[Na+] [Compound 390, Dehydroisoandrosterone 3-sulfate sodium]
Compound effect (percent receptor signaling in presence of test compound, relative lux units relative to the SCH23390 control): 94

Cn1c(=O)[nH]c2ncn(C)c2c1=O [Compound 391, 1,7-Dimethylxanthine]
Compound effect (percent receptor signaling in presence of test compound, relative lux units relative to the SCH23390 control): 94

COC1=C(OC)C(=O)c2ccccc2C1=O [Compound 392, 2,3-Dimethoxy-1,4-naphthoquinone]
Compound effect (percent receptor signaling in presence of test compound, relative lux units relative to the SCH23390 control): 45
